Columns and labels:
Format in all cases: ADME
Set-up in all cases: dose 2 uM
Settings in all cases: 2 µM
[1] = target: T1, Nitroreductase domain-containing protein (Phocaeicola dorei, UniProt B6VU18); assay: The drug is tested on Bacteroides dorei strain: DSM17855 for biotransformation. The drug concentrations were measured before and after a 12-h incubation by liquid-chromatography-coupled mass spectrometry (LC–MS)
T1 sequence (B6VU18 whole entry): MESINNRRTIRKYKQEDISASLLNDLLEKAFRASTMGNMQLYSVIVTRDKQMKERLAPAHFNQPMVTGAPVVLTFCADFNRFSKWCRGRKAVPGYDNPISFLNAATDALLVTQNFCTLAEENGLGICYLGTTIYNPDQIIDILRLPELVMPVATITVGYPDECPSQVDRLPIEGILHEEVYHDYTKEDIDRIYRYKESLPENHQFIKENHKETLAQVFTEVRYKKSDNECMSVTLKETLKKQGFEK

[2] = target: T2, Sialic acid-specific acetylesterase (Bacteroides thetaiotaomicron, UniProt Q8A331); assay: (§1) The drug is tested on Bacteroides thetaiotaomicron strain: VPI-5482 for biotransformation. The drug concentrations were measured before and after a 12-h incubation by liquid-chromatography-coupled mass spectrometry (LC–MS)
T2 sequence (Q8A331 whole entry): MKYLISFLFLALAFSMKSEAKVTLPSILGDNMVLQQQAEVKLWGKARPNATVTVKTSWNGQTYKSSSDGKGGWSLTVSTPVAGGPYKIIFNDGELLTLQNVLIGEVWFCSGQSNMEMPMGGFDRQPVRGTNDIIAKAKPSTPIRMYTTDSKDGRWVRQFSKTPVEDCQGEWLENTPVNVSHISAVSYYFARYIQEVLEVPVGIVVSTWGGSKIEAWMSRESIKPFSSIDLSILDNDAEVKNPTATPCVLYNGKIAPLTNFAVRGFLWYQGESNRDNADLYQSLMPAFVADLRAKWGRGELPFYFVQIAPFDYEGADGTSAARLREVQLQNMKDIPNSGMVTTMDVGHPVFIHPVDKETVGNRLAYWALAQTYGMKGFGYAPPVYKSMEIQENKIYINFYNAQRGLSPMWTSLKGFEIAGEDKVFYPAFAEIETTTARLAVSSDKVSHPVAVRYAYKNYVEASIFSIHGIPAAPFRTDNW

[3] = target: T3, Lipolytic enzyme, G-D-S-L family (Bacteroides thetaiotaomicron, UniProt Q8A0E6); assay: as §1
T3 sequence (Q8A0E6 whole entry): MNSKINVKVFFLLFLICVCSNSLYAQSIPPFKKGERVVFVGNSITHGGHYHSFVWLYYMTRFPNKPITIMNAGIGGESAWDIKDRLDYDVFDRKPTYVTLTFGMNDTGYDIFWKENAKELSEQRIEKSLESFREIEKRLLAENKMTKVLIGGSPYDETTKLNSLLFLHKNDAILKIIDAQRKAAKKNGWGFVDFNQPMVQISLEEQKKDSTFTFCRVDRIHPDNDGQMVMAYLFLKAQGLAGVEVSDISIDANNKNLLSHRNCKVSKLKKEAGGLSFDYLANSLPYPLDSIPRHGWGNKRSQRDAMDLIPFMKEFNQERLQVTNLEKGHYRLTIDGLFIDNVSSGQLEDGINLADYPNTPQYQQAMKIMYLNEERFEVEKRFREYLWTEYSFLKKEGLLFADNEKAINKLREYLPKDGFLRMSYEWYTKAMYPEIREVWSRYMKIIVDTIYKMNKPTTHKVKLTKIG

[4] = target: T4, Acetyl esterase (Acetylxylosidase) (Bacteroides thetaiotaomicron, UniProt Q8ABF8); assay: as §1
T4 sequence (Q8ABF8 whole entry): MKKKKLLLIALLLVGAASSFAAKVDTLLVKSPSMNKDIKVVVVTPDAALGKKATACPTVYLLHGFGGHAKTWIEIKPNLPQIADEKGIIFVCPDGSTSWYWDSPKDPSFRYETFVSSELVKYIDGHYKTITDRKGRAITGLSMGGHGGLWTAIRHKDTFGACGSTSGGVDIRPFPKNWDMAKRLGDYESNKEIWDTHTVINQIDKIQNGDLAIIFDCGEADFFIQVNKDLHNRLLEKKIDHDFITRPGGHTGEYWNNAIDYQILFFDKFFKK

Endoglucanase E (EGE) = target: T5, Endoglucanase E (EGE) (Bacteroides thetaiotaomicron, UniProt Q8AAL9); assay: as §1
T5 sequence (Q8AAL9 whole entry): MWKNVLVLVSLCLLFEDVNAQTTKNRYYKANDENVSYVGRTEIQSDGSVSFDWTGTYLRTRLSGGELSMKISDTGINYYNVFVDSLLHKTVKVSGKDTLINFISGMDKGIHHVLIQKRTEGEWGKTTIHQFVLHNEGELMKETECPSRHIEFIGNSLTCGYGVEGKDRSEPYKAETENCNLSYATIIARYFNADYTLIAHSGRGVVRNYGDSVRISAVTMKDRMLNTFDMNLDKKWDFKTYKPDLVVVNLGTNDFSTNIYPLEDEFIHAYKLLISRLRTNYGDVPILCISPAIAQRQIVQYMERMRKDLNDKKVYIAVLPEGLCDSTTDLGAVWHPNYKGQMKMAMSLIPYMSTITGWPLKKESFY

Nitroreductase = target: T6, Nitroreductase (Bacteroides thetaiotaomicron, UniProt Q8A911); assay: as §1
T6 sequence (Q8A911 whole entry): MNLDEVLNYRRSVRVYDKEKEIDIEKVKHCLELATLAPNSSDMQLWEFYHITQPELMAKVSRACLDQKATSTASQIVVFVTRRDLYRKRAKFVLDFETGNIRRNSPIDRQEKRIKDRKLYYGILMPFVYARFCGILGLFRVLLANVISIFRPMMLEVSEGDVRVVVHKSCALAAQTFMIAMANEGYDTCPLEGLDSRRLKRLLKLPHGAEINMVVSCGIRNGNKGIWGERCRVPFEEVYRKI

Regulatory protein = target: T7, Regulatory protein (Bacteroides thetaiotaomicron, UniProt Q8A576); assay: as §1
T7 sequence (Q8A576 whole entry): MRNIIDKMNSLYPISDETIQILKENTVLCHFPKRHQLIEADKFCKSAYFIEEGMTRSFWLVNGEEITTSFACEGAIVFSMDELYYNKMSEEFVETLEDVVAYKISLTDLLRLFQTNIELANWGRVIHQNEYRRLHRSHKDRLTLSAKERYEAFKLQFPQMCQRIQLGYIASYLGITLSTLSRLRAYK

[5] = target: T8, NADH dehydrogenase/NAD(P)H nitroreductase (Bacteroides thetaiotaomicron, UniProt Q8A8L9); assay: as §1
T8 sequence (Q8A8L9 whole entry): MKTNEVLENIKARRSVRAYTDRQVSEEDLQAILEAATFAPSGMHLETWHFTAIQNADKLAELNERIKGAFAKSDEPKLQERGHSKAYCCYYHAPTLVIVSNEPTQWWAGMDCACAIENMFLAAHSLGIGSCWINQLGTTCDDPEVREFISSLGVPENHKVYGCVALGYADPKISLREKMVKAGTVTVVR

Q: Which “Bacterial Biotransformation” value [1] does the source give for `CC(=O)SCC(Cc1ccccc1)C(=O)NCC(=O)OCc1ccccc1` (stereo unspecified) [RACECADOTRIL] here?
A: Compound NOT metabolized

Q: What about the “Bacterial Biotransformation” value [2] of the same molecule?
A: Compound metabolized

Q: What about the “Bacterial Biotransformation” value [3] of the same molecule?
A: Compound NOT metabolized

Q: What about the “Bacterial Biotransformation” value [4] of the same molecule?
A: Compound metabolized

Q: And the “Bacterial Biotransformation” value (Endoglucanase E (EGE))?
A: Compound NOT metabolized

Q: And the “Bacterial Biotransformation” value (Nitroreductase)?
A: Compound NOT metabolized

Q: And the “Bacterial Biotransformation” value (Regulatory protein)?
A: Compound NOT metabolized

Q: What about the “Bacterial Biotransformation” value [5] of the same molecule?
A: Compound NOT metabolized

Q: With `CC(=O)Nc1ccc(OC(C)=O)cc1` [DIACETAMATE] as the molecule, how does the “Bacterial Biotransformation” value [1] read?
A: Compound NOT metabolized

Q: What about the “Bacterial Biotransformation” value [2] of the same molecule?
A: Compound metabolized

Q: What about the “Bacterial Biotransformation” value [3] of the same molecule?
A: Compound NOT metabolized

Q: And the “Bacterial Biotransformation” value [4]?
A: Compound metabolized

Q: What about the “Bacterial Biotransformation” value (Endoglucanase E (EGE)) of the same molecule?
A: Compound metabolized

Q: What about the “Bacterial Biotransformation” value (Nitroreductase) of the same molecule?
A: Compound NOT metabolized

Q: And the “Bacterial Biotransformation” value (Regulatory protein)?
A: Compound metabolized

Q: What about the “Bacterial Biotransformation” value [5] of the same molecule?
A: Compound NOT metabolized
